Experimental data: patent US9115201B2 (priority 2008, dated 2015)

Key:
Set-up in all cases: key: S, oseltamivir sensitive; R, oseltamivir resistant
[1] = tested on: NA of A/New Caledonia/20/99; format: biochemical, influenza H1N1 A/New Caledonia/20/99
NA of A/Udorn/72 = format: biochemical, influenza H3N2 A/Udorn/72
[2] = tested on: NA of A/Egypt-2/14724/NAMRU3/06; format: biochemical, influenza H5N1 A/Egypt-2/14724/NAMRU3/06
NA of A/Vietnam/1203/04 = NA of A/Vietnam/1203/04 (Influenza A virus, UniProt Q6DPL2); format: biochemical, influenza H5N1 A/Vietnam/1203/04
Sequence of NA of A/Vietnam/1203/04 (Q6DPL2 whole entry, looked up): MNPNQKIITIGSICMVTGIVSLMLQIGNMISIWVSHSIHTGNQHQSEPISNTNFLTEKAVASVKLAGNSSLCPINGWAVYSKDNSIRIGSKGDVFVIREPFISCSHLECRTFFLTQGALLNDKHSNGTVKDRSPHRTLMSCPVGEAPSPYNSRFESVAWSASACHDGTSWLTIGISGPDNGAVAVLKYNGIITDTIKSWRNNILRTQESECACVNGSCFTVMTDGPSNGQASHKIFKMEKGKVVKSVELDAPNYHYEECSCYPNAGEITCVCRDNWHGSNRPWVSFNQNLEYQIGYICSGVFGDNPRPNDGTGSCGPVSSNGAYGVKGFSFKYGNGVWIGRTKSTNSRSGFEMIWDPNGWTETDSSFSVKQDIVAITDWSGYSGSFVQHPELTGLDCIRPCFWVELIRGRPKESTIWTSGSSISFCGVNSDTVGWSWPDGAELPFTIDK

NA of A/Hong Kong/156/97 = format: biochemical, influenza H5N1 A/Hong Kong/156/97
NA of A/Indonesia/05 = format: biochemical, influenza H5N1 A/Indonesia/05
[3] = tested on: NA of A/Vietnam/HN/30408/05; format: biochemical, influenza H5N1 A/Vietnam/HN/30408/05
[4] = tested on: NA of A/Egypt/14725/NAMRU3/06; format: biochemical, influenza H5N1 A/Egypt/14725/NAMRU3/06
[5] = tested on: NA of A/duck/Hong Kong/380.5/01; format: biochemical, influenza H5N1 A/duck/Hong Kong/380.5/01

CCOC(=O)C1=C[C@@H](OC(CC)CC)[C@H](NC(C)=O)[C@@H](N)C1 [Oseltamivir]
Oseltamivir sensitivity of the virus [1]: S | Oseltamivir sensitivity of the virus (NA of A/Udorn/72): S^§ | Oseltamivir sensitivity of the virus [2]: R | Oseltamivir sensitivity of the virus (NA of A/Vietnam/1203/04): S | Oseltamivir sensitivity of the virus (NA of A/Hong Kong/156/97): S | Oseltamivir sensitivity of the virus (NA of A/Indonesia/05): S | Oseltamivir sensitivity of the virus [3]: R | Oseltamivir sensitivity of the virus [4]: R | Oseltamivir sensitivity of the virus [5]: R
